This is an account of results in patent US6060473A, “7-azabicyclo[2.2.1]-heptane and -heptene derivatives as cholinergic receptor ligands” (priority 1996, dated 2000).

In assay [1] the target is T1, acetylcholine nicotinic receptor (Rattus norvegicus, UniProt P09483+P12390).
T1 construct: rat cortex as the tissue substrate; from tissue; host or cells: rat cortex
Briefly: Nicotinic receptor binding, [3H]-NMCI radioligand, rat cortex (Table 6). On the procedure:
7-Aza-bicyclo[2.2.1]-heptanes and -heptenes were evaluated for their ability to bind to the acetylcholine nicotinic receptor using a standard binding assay, e.g. X. Zhang and A. Nordberg, Arch. Pharmacol., 348, 28 (1993); R. E. Middleton and J. B. Cohen, Biochemistry, 30, 6987 (1991), with nicotine sulfate as the reference compound, rat cortex as the tissue substrate, and a [^3 H]-NMCI radioligand.

A short description of assay [2]: Tail-flick assay (Tables 7 and 8, species not stated per value). Type of assay: in vivo, mice and rats. The conditions noted are these: for ED50: Mus musculus, sc, 5 min, read-out: Tail-Flick Assay ED50; for Tail-Flick Assay % Effect after 5 min: Table 7, 5 min; for Tail-Flick Assay % Effect after 5 min / Tail-Flick Assay % Effect after 60 min: head also prints ED50 (mg/kg); for Tail-Flick Assay % Effect after 60 min: Table 7, 60 min. The protocol:
(§1) Female CD-1 mice (20-25 g, Charles River Labs) and male CD rats (300-400 g, Charles River Labs) were housed in groups of two and five, respectively. Animals were given food and water ad libitum. Most studies were performed using groups of 5 animals per treatment unless otherwise noted.
(§2) Antinociceptive effects (i.e., analgesia) of test compounds in mice and rats were measured by the tail-flick test using a tail-flick analgesia meter (EMDIE Instrument Co.). A maximum latency of 10 sec was imposed if no response occurred within that time. Antinociceptive activity, measured as % MPE, was calculated as [(test-control)/(10-control)×100)].
(§3) Duration of compound and (-)-nicotine-induced antinociception was assessed in mice by measuring antinociception at 2, 5, 10, 20 min after compound (20 μg/kg, s.c.) or nicotine (5 mg/kg, s.c.).
Mice (7/group) or rats were pretreated i.v. (0.9% saline or antagonist, mecamylamine, hexamethonium, atropine, naloxone or yohimbine) 10 minutes before administration of compound or nicotine at different doses. […]

Assay [3] can be described thus: Straub-Tail assay (Table 5). Type of assay: in vivo. The text has this:
A wide variety of biological assays have been used to evaluate the ability of a compound to act as an analgesic. Any of these known assays can be used to evaluate the analgesic ability of the compounds disclosed herein. The Straub-tail reaction, which is characteristic of opiate alkaloids, has been used as an assay for opiate agonists and antagonists. The assay is described in detail in Br. J. of Pharmacol. 1969, 36, 225. Another accepted assay for analgesic activity is the hot plate analgesia assay, described in J. of Pharmacol. Exp. Therap. 1953, 107, 385. An assay for the evaluation of the ability of a compound to bind to an opiate receptor is described in Mol. Pharmacol. 1974, 10, 868.
Table 5 provides the analgesic activity measured as ED50 (μg/Kg) for selected compounds disclosed herein, as determined using the Straub-Tail assay, as describe by J. Daily et al. J. Am. […] Chem. Soc. 1992, 114, 3475; T. Li, et al. Bioorganic and Medicinal Chemistry Letters 1993, 3, 2759.

The target of assay [4] is T2, nicotinic cholinergic receptor (Rattus norvegicus, UniProt P09483+P12390).
T2 construct: A membrane fraction from rat brain cortex; tissue Harlan Laboratories; host or cells: rat brain cortex membranes
The experiment in a line: Competition with [3H](-)-cytisine for binding to rat cortex (brain) receptors (Tables 7, 8, 9). The text has this:
[^3 -H](-)-Cytisine is a nicotinic cholinergic receptor ligand that binds with high affinity to the a4b2 subtype receptor, the major subtype in rodent brain accounting for >90% of (-)-nicotine binding sites (Flores, et al., 1992; Whiting, et al., 1992). This nicotinic receptor subtype is most sensitive to (-)-nicotine compared to other receptor subtypes (Connolly, et al., (1992). Compounds that compete with cytisine for the nicotinic cholineric receptor are considered nicotine receptor agonists.
A membrane fraction from rat brain cortex (Harlan Laboratories) was prepared using an adaptation of an established method (Pabreza, et al., 1991). Compound and [^3 H]-(-)-cytisine (New England Nuclear, 42 Ci/mmol) were mixed before addition of membrane (0.5 mg protein) and incubated in glass tubes for 75 minutes on ice; total assay volume was 0.24 ml. Parallel assays to determine nonspecific binding were incubated in the presence of 10 uM (-)-nicotine (Sigma). Bound radioactivity was isolated by vacuum filtration onto glass microfiber filters (Whatman, GF-B) using millipore tubs, followed by 3×4 ml buffer wash. Filters were prerinsed with 0.5% polyethyleneimine prior to sample filtration to reduce nonspecific binding. Bound radioactivity was quantitated by scintillation counting.

A short description of assay [5]: Tail-flick assay, rat (Table 9). Particulars: sc, 5 min. In kind it is in vivo. The protocol: as §1, §2
(§4) Mice (7/group) or rats were pretreated i.v. (0.9% saline or antagonist, mecamylamine, hexamethonium, atropine, naloxone or yohimbine) 10 minutes before administration of compound or nicotine at different doses. A control response (1.5-4 sec) was determined for each animal before treatment and test latencies were assessed at 5 minutes after compound administration (5 ml/kg, s.c.) or 2 min after nicotine (5 ml/kg, s.c.).
On the technique in general: Hot-plate and tail-flick tests time the reaction to a heat stimulus.

The nature of assay [6]: Tail-flick assay, mouse (Table 9). Type of assay: in vivo. The conditions noted are these: sc, 5 min. On the procedure: as §1, §2, §3, §4
Assay [7] deals with nicotinic cholinergic receptor. The conditions noted are these: in words; cited from earlier work.
The conditions of assay [8]: opiate antagonist naloxone; cited from earlier work.
A further assay deals with a4b2 subtype receptor. Particulars: in words; cited from earlier work.
[9] abbreviates: Table 7, rat brain cortex membranes, read-out: Nicotine Receptor Cytisine IC50.
The mark [10] stands for this setting: Table 9, read-out: rat brain, 3H-cytisine binding IC50.

SMILES strings stand for the structures. Like-named read-outs stand apart in the source and are kept apart here.

Consider `CN1C2CCC1C(c1ccc(Cl)nc1)C2` (stereo not shown), for which the Inhibition % was found to be 22% in assay [1] (testing level 10^-9) and 5% in assay [1] (testing level 10^-11). `c1cncc(C2CC3CCC2N3)c1` (stereo not shown): in assay [1] (testing level 10^-9), the Inhibition % amounted to 103%.

In the case of `C[N+]1(C)C2CCC1C(c1ccc(Cl)nc1)C2` (stereo not shown), in assay [1] (testing level 10^-9), the Inhibition % stood at 49%. As to `N=CN1C2CCC1C(c1ccc(Cl)nc1)C2` (stereo not shown), the Inhibition % was found to be 49% in assay [1] (testing level 10^-9) and 22% in assay [1] (testing level 10^-11). Turning to `N=CN1C2CCC1C(c1cccnc1)C2` (stereo not shown), the Inhibition % in assay [1] (testing level 10^-9) is given as 5%. Turning to `Cc1cc(C2CC3CCC2N3)on1` (stereo not shown), the ED50 – broadly, the dose at which the effect has come halfway, by size or by number of responders – in assay [2] is over 2 mg/kg.

Regarding `Cc1cc(C2CC3CCC2N3C)on1` (stereo not shown), in [2] (Table 8), the ED50 is about 1 mg/kg. As for `c1ccc2nc(C3CC4CCC3N4)ccc2c1` (stereo not shown), the ED50 in [2] was over 2 mg/kg. In turn, `Clc1ccc([C@H]2C[C@H]3CC[C@@H]2N3)cn1` (relative stereo) had an ED50 in [3] of over 0.1 mg/kg.

For the compound `Clc1ccc([C@@H]2C[C@H]3CC[C@@H]2N3CC2CC2)cn1` (relative stereo), the “effect at 1000 μg/Kg” value in assay [3] (@ 1000 (μg/Kg)) is listed as 100%. As to `C[N+]1(C)[C@@H]2CC[C@H]1[C@H](c1ccc(Cl)nc1)C2` (relative stereo), the ED50 in [3] (read-out: ED50) was in the range of 0.1 to 0.2 mg/kg. Still for that read-out and setting: the value for `Fc1ccc([C@H]2C[C@H]3CC[C@@H]2N3)cn1` (relative stereo) was about 0.01 mg/kg. Turning to `N=CN1[C@@H]2CC[C@H]1[C@H](c1ccc(Cl)nc1)C2` (relative stereo), in assay [3] (@ 100 (dose unit not given; column μg/Kg)), the “effect at 100” value was found to be 99%. Turning to `Cc1nnc([C@H]2C[C@H]3CC[C@@H]2N3C)o1` (relative stereo), in assay [4] (setting [9]), the IC50 – broadly, the point on the concentration scale where inhibition reaches its midpoint – was determined as 32000 nM. Further, in assay [2], the “Tail-Flick Assay % Effect after 5 min” value is -2.9% and the “Tail-Flick Assay % Effect after 60 min” value was -3.6%. With `Cc1nnc([C@@H]2C[C@H]3CC[C@@H]2N3C)o1` (relative stereo), in [4] (setting [9]), the IC50 was determined as 150 nM. Further, in [2], the “Tail-Flick Assay % Effect after 5 min” value is 6.7% and the “Tail-Flick Assay % Effect after 60 min” value was found to be 24.6%. On to `Cc1noc([C@@H]2C[C@H]3CC[C@@H]2N3C)n1` (relative stereo) [racemic A/B, (±)-exo-2-(3-methyl-1,2,4-oxadiazol-5-yl)-7-methyl-7-azabicyclo[2.2.1]heptane], for which the IC50 in [4] (setting [10]) stood at 100 nM. Besides, the ED50 in assay [5] came out at 2.2 mg/kg; in assay [6] it was 0.2 mg/kg. Take `Cc1noc([C@@H]2C[C@H]3CC[C@@H]2N3C)n1` (single isomer, unassigned) [A]: the IC50 in [4] (setting [10]) worked out at 1400 nM. Turning to `Cc1noc([C@@H]2C[C@H]3CC[C@@H]2N3C)n1` (single isomer, unassigned) [B], in assay [4] (setting [10]), the IC50 was determined as 18 nM. Regarding `Clc1ccc([C@@H]2C[C@H]3CC[C@@H]2N3)cn1` (single isomer, unassigned) [epibatidine, exo-2-(2-chloro-5-pyridyl)-7-azabicyclo [2.2.1]heptane], the “nicotinic cholinergic receptor agonism” value in assay [7] is recorded as “nicotinic cholinergic receptor agonist”. The “reversal of Straub-tail effect by naloxone” value in assay [8] was “not reversed by the opiate antagonist naloxone”. In [3], `Clc1ccc(C2CC3CCC2N3)cn1` (stereo not shown) [1-epibatidine] displayed an ED50 of 0.009 mg/kg.

On to `O=c1cccc2n1C[C@@H]1CNC[C@H]2C1` [[^3 -H](-)-Cytisine], for which the “affinity to a4b2 subtype receptor” value in the assay with a4b2 subtype receptor is “high affinity”. As for `Clc1ccc([C@@H]2C[C@H]3CC[C@@H]2N3)cn1` [d-epibatidine], the ED50 in [3] came out at 0.0075 mg/kg.
